Each compound was assayed against HDAC2 (Homo sapiens, UniProt Q92769) (assay: HDAC2 colorimetric assay, substrate Boc-Lys(Ac)-AMC). Conditions: Table 1.
Type: biochemical

Chain of HDAC2 (Q92769 whole entry): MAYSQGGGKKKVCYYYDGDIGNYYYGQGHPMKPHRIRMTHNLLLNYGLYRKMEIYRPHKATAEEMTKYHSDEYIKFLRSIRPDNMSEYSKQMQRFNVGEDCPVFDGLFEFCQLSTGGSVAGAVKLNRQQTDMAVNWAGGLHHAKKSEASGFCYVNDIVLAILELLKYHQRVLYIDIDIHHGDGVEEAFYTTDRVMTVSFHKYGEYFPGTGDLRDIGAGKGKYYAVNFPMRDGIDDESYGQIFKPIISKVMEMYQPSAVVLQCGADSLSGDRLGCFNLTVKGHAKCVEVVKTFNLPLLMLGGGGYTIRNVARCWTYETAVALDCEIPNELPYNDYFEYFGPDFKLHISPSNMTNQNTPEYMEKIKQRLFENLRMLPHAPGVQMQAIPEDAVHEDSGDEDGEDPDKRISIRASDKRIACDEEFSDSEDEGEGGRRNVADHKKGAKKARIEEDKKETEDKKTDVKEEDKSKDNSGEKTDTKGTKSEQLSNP

Row | IC50 [µM] | SMILES
1 | > 50 | N=C1Sc2cc(Br)ccc2C2=NCCCN12 [Compound 13g, 9-Bromo-3,4-Dihydrobenzo[e]Pyrimido[1,2-c][1,3]Thiazin-6(2H)-Imine]
2 | > 50 | N=C1Sc2cc(F)ccc2C2=NCCCN12 [Compound 13f, 9-Fluoro-3,4-Dihydrobenzo[e]Pyrimido[1,2-c][1,3]Thiazin-6(2H)-Imine]

Each compound was assayed against HDAC3 (Homo sapiens, UniProt O15379) (assay: HDAC3 colorimetric assay, substrate Boc-Lys(Ac)-AMC). Conditions: Table 1.
Type: biochemical

Chain of HDAC3 (O15379 whole entry): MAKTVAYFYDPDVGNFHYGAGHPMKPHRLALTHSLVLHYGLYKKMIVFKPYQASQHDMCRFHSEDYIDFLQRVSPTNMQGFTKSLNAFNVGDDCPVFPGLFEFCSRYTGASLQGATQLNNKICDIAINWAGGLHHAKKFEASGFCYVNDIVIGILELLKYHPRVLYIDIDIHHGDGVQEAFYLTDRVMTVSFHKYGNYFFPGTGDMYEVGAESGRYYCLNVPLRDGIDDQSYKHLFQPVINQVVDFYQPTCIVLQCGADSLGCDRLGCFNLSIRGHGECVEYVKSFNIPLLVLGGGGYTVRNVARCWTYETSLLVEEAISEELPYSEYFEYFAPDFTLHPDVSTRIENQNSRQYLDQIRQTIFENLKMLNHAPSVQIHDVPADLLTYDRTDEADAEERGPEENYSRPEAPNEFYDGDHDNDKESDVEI
Chain of HDAC3 (Q9Y618 395-489 partner limits assumed): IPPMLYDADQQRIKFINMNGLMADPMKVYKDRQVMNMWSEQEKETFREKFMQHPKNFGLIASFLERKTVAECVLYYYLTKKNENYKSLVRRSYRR

Row | IC50 [µM] | SMILES
3 | 6.7 ± 0.4 | N=C1Sc2cc(Br)ccc2C2=NCCCN12 [Compound 13g, 9-Bromo-3,4-Dihydrobenzo[e]Pyrimido[1,2-c][1,3]Thiazin-6(2H)-Imine]
4 | 10 ± 0.56 | N=C1Sc2cc(F)ccc2C2=NCCCN12 [Compound 13f, 9-Fluoro-3,4-Dihydrobenzo[e]Pyrimido[1,2-c][1,3]Thiazin-6(2H)-Imine]

These compounds were tested against HDAC4 (Homo sapiens, UniProt P56524) (assay: not given). Conditions: Table 1.
Type: biochemical

Chain of HDAC4 (P56524 whole entry): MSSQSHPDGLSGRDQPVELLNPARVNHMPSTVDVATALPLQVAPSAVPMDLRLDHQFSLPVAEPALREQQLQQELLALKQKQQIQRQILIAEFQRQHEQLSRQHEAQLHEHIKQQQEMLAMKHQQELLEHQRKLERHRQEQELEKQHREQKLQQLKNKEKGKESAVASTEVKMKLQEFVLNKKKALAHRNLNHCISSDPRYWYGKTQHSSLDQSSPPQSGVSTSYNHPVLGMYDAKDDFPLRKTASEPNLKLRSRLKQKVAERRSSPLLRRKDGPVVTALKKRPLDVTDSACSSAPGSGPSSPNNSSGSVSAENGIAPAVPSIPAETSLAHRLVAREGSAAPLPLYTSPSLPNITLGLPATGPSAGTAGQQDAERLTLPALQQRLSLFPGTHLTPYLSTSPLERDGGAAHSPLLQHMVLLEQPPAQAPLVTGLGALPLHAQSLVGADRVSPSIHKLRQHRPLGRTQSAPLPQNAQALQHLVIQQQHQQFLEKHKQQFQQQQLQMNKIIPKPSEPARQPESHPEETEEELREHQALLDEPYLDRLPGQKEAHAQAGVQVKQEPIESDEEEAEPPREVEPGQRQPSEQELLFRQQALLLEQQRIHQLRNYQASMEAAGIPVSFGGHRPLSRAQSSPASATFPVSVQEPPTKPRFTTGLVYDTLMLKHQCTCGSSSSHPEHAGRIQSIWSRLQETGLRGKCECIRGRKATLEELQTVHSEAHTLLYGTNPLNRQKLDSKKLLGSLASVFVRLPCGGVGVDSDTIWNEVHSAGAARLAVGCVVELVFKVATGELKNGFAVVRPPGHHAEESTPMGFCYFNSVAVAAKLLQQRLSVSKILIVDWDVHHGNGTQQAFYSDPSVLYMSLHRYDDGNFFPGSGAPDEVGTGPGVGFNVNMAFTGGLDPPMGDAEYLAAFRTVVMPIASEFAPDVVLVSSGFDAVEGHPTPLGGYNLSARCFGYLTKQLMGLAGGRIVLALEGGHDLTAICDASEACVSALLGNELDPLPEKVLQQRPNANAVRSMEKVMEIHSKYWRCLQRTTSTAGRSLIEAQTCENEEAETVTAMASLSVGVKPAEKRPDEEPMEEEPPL

Row | IC50 [µM] | SMILES
5 | 2 ± 0.1 | N=C1Sc2cc(Br)ccc2C2=NCCCN12 [Compound 13g, 9-Bromo-3,4-Dihydrobenzo[e]Pyrimido[1,2-c][1,3]Thiazin-6(2H)-Imine]
6 | 2.84 ± 0.13 | N=C1Sc2cc(F)ccc2C2=NCCCN12 [Compound 13f, 9-Fluoro-3,4-Dihydrobenzo[e]Pyrimido[1,2-c][1,3]Thiazin-6(2H)-Imine]

These compounds were tested against T1, HDAC6 (Homo sapiens, UniProt Q9UBN7) (assay: HDAC6 colorimetric assay, substrate Boc-Lys(Ac)-AMC). Conditions: Table 1; read-out: IC50 HDAC6.
T1 sequence (Q9UBN7 1-1215): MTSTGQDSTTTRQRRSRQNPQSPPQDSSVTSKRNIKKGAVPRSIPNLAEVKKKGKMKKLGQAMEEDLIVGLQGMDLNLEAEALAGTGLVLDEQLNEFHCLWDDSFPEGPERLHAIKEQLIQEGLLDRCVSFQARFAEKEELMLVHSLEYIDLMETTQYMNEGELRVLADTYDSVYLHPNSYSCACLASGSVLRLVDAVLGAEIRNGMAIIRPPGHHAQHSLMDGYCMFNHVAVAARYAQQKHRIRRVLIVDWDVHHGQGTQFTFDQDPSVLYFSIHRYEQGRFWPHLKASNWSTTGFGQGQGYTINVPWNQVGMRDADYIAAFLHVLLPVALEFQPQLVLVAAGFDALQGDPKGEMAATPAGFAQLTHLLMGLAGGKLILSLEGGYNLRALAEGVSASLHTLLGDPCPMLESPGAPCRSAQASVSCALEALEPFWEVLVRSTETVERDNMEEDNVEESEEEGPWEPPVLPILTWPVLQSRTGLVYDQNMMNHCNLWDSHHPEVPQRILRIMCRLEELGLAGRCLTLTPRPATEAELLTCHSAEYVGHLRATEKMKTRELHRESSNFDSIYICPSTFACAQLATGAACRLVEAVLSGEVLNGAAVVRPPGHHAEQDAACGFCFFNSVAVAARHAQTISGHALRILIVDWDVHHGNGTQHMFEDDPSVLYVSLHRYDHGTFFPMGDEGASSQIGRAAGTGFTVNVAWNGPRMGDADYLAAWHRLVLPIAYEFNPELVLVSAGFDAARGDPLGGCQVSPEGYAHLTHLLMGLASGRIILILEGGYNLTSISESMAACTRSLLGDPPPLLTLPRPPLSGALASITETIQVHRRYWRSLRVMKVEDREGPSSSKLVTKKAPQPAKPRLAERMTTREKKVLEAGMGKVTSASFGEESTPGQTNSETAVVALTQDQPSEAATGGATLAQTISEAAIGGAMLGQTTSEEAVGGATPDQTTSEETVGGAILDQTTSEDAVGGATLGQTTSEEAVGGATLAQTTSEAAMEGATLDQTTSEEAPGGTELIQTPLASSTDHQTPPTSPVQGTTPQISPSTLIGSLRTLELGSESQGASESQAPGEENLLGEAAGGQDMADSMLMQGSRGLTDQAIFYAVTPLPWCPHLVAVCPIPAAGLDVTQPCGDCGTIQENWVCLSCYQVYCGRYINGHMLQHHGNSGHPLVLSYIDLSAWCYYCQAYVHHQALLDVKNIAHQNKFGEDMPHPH
Type: biochemical

Row | IC50 [µM] | SMILES
7 | 2.8 ± 0.7 | N=C1Sc2cc(Br)ccc2C2=NCCCN12 [Compound 13g, 9-Bromo-3,4-Dihydrobenzo[e]Pyrimido[1,2-c][1,3]Thiazin-6(2H)-Imine]
8 | 9 ± 4 | N=C1Sc2cc(F)ccc2C2=NCCCN12 [Compound 13f, 9-Fluoro-3,4-Dihydrobenzo[e]Pyrimido[1,2-c][1,3]Thiazin-6(2H)-Imine]

The compounds below were run on uterine leiomyosarcoma cell line SKUT-1 (assay: Growth inhibition of cancer cell line, resazurin assay). Conditions: Homo sapiens, SK-UT-1; Table 2, resazurin assay.
Type: cell-based, Human

Row | GI50 [µM] | SMILES
9 | 76 ± 7 | N=C1Sc2cc(Br)ccc2C2=NCCCN12 [Compound 13g, 9-Bromo-3,4-Dihydrobenzo[e]Pyrimido[1,2-c][1,3]Thiazin-6(2H)-Imine]
10 | 147 ± 73 | N=C1Sc2cc(F)ccc2C2=NCCCN12 [Compound 13f, 9-Fluoro-3,4-Dihydrobenzo[e]Pyrimido[1,2-c][1,3]Thiazin-6(2H)-Imine]

What follows are compounds tested on breast cancer cell line MCF-7 in the same assay as above. Conditions: Homo sapiens, MCF7; Table 2, resazurin assay.
Type: cell-based, Human

Row | GI50 [µM] | SMILES
11 | > 1000 | N=C1Sc2cc(Br)ccc2C2=NCCCN12 [Compound 13g, 9-Bromo-3,4-Dihydrobenzo[e]Pyrimido[1,2-c][1,3]Thiazin-6(2H)-Imine]
12 | > 1000 | N=C1Sc2cc(F)ccc2C2=NCCCN12 [Compound 13f, 9-Fluoro-3,4-Dihydrobenzo[e]Pyrimido[1,2-c][1,3]Thiazin-6(2H)-Imine]

These compounds were tested against HDAC1 (Homo sapiens, UniProt Q13547) (assay: HDAC1 colorimetric assay, substrate Boc-Lys(Ac)-AMC). Conditions: IC50 HDAC1, Table 1.
Chain of HDAC1 (Q13547 whole entry): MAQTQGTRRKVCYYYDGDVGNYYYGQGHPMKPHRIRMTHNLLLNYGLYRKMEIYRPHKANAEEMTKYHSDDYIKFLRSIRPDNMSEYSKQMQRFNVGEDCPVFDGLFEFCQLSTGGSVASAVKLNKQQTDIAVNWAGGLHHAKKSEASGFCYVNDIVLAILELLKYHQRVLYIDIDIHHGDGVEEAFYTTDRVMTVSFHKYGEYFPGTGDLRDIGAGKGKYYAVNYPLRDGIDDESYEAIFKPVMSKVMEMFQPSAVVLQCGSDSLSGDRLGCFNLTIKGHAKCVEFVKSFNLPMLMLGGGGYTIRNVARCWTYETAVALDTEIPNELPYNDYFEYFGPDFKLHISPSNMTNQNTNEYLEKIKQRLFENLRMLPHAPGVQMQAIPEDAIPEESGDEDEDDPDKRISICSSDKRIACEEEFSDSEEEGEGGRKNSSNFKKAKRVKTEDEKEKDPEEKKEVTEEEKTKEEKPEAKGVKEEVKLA
Method: 1 nM of HDAC1 was incubated with increasing concentrations of the respective compound for 30 minutes at 30° C. The reaction was initiated by addition of 50 μM of the substrate Boc-Lys(Ac)-AMC. After an incubation of 60 minutes the reaction was stopped by addition of 20 μM SAHA and the deacetylated substrate was converted into a fluorescent product by the addition of trypsin.

Row | IC50 [µM] | SMILES
13 | 1.7 ± 0.2 | N=C1Sc2cc(Br)ccc2C2=NCCCN12 [Compound 13g, 9-Bromo-3,4-Dihydrobenzo[e]Pyrimido[1,2-c][1,3]Thiazin-6(2H)-Imine]
14 | 2.9 ± 0.3 | N=C1Sc2cc(F)ccc2C2=NCCCN12 [Compound 13f, 9-Fluoro-3,4-Dihydrobenzo[e]Pyrimido[1,2-c][1,3]Thiazin-6(2H)-Imine]

These compounds were tested against HDAC5 (Homo sapiens, UniProt Q9UQL6) (assay: HDAC5 colorimetric assay, substrate Boc-Lys(TFA)-AMC). Conditions: not given.
Chain of HDAC5 (Q9UQL6 whole entry): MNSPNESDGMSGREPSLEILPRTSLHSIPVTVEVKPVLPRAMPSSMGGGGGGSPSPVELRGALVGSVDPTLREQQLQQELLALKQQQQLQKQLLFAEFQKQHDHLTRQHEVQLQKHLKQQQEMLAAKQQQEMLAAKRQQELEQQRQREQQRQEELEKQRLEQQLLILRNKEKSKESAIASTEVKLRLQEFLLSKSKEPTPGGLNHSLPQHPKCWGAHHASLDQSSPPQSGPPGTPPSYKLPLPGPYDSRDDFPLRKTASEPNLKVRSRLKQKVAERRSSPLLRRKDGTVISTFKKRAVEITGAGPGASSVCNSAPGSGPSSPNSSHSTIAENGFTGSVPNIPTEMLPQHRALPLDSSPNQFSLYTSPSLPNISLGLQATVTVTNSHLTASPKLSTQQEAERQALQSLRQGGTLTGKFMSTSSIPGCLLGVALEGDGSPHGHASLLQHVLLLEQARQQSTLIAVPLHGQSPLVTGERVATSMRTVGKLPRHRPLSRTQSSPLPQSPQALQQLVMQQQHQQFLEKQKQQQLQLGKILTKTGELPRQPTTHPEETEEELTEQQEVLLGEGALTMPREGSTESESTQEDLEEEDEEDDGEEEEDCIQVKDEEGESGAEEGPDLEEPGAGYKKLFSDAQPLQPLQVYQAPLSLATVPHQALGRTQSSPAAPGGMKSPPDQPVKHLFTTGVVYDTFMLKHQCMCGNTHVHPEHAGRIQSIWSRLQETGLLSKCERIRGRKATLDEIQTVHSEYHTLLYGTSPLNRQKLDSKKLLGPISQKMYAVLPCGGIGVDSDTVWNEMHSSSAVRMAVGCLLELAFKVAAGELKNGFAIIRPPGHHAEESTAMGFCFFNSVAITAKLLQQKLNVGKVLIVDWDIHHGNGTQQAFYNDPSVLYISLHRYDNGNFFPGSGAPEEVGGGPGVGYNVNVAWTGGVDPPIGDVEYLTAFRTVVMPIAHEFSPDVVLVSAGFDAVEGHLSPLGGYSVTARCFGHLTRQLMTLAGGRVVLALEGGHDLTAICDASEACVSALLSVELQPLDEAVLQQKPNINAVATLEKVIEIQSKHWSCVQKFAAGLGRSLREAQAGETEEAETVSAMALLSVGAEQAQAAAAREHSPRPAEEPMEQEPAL

Row | IC50 [µM] | SMILES
15 | 0.14 ± 0.02 | N=C1Sc2cc(Br)ccc2C2=NCCCN12 [Compound 13g, 9-Bromo-3,4-Dihydrobenzo[e]Pyrimido[1,2-c][1,3]Thiazin-6(2H)-Imine]
16 | 0.17 ± 0.02 | N=C1Sc2cc(F)ccc2C2=NCCCN12 [Compound 13f, 9-Fluoro-3,4-Dihydrobenzo[e]Pyrimido[1,2-c][1,3]Thiazin-6(2H)-Imine]

Each compound was assayed against T2, HDAC7 (Homo sapiens, UniProt Q8WUI4) (assay: HDAC7 colorimetric assay, substrate Boc-Lys(TFA)-AMC). Conditions: IC50 HDAC7, Table 1.
T2 sequence (Q8WUI4 1-952): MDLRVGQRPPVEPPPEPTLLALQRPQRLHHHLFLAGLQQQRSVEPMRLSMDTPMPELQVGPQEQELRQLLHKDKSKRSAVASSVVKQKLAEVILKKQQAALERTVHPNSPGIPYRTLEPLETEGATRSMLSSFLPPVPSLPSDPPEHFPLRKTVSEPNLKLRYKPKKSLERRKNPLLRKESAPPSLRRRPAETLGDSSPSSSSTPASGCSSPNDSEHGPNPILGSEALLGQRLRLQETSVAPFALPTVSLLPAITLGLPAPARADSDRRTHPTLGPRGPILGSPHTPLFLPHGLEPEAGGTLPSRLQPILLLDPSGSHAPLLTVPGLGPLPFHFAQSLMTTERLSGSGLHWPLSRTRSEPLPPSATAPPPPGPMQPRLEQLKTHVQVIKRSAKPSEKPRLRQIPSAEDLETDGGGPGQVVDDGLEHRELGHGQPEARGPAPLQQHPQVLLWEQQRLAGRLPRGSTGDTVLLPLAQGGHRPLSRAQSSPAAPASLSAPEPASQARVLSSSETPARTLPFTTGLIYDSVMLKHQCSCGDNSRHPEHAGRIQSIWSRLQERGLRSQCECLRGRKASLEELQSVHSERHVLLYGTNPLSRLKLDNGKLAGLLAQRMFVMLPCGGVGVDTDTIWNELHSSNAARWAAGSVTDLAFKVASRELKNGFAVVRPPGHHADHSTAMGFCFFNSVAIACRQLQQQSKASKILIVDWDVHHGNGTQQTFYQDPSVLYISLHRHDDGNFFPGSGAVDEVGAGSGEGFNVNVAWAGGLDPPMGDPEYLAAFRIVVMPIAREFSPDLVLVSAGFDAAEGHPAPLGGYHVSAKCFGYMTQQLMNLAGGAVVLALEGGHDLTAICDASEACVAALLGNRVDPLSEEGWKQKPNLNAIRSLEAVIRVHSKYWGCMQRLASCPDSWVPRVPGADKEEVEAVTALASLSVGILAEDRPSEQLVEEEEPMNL

Row | IC50 [µM] | SMILES
17 | 1.7 ± 0.2 | N=C1Sc2cc(Br)ccc2C2=NCCCN12 [Compound 13g, 9-Bromo-3,4-Dihydrobenzo[e]Pyrimido[1,2-c][1,3]Thiazin-6(2H)-Imine]
18 | 2.6 ± 0.4 | N=C1Sc2cc(F)ccc2C2=NCCCN12 [Compound 13f, 9-Fluoro-3,4-Dihydrobenzo[e]Pyrimido[1,2-c][1,3]Thiazin-6(2H)-Imine]

These compounds were tested against T3, HDAC8 (Homo sapiens, UniProt Q9BY41) (assay: HDAC8 colorimetric assay, substrate Boc-Lys(TFA)-AMC). Conditions: IC50 HDAC8, Table 1.
T3 sequence (Q9BY41 1-377): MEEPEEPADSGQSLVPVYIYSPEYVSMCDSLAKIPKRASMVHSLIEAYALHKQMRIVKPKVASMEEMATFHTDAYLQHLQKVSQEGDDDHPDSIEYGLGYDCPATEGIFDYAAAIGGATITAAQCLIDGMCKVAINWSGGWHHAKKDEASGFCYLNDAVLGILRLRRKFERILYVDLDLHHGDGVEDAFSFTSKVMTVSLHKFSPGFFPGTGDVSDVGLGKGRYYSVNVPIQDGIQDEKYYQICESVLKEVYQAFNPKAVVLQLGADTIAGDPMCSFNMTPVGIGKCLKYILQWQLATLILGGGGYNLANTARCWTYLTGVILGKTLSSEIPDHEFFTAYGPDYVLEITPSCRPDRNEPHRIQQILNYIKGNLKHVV
Method: 1 nM of HDAC4 was incubated with increasing concentrations of the respective compound for 30 minutes at 30° C. The reaction was initiated by addition of 20 μM of the substrate Boc-Lys(trifluoracetyl)-AMC. After an incubation of 60 minutes the reaction was stopped by addition of 20 μM SAHA and the deacetylated substrate was converted into a fluorescent product by the addition of trypsin.

Row | IC50 [µM] | SMILES
19 | 0.0029 ± 0.0001 | N=C1Sc2cc(Br)ccc2C2=NCCCN12 [Compound 13g, 9-Bromo-3,4-Dihydrobenzo[e]Pyrimido[1,2-c][1,3]Thiazin-6(2H)-Imine]
20 | 0.0041 ± 0.0002 | N=C1Sc2cc(F)ccc2C2=NCCCN12 [Compound 13f, 9-Fluoro-3,4-Dihydrobenzo[e]Pyrimido[1,2-c][1,3]Thiazin-6(2H)-Imine]

The compounds below were run on T cell leukemia cell line JURKAT (assay: Growth inhibition of cancer cell line, resazurin assay). Conditions: Homo sapiens, Jurkat, read-out: GI50 JURKAT.
Method: The following tumor cell lines were used: • Human uterine leiomyosarcoma cell line SKUT-1 (ATCC® HTB114™) • Human T cell leukemia cell line JURKAT (ATCC® TIB152™) • Human breast cancer cell line MCF-7 (ATCC® HTB22™)
Cells were cultured in Dulbecco's modified Eagle's medium (DMEM) supplemented with 10% FCS.

Row | GI50 [µM] | SMILES
21 | 30 ± 3 | N=C1Sc2cc(Br)ccc2C2=NCCCN12 [Compound 13g, 9-Bromo-3,4-Dihydrobenzo[e]Pyrimido[1,2-c][1,3]Thiazin-6(2H)-Imine]
22 | 33 ± 3 | N=C1Sc2cc(F)ccc2C2=NCCCN12 [Compound 13f, 9-Fluoro-3,4-Dihydrobenzo[e]Pyrimido[1,2-c][1,3]Thiazin-6(2H)-Imine]

Reference: patent publication US20210220370A1, “SELECTIVE HDAC8 INHIBITORS AND THEIR USES” (HOCHSCHULE DARMSTADT, priority 2015, published 2021)
